Results on seven compounds are retold here after patent US20260083865A1, “PROSTATE SPECIFIC MEMBRANE ANTIGEN (PSMA) LIGANDS AND USE THEREOF” (priority 2022, published 2026).

Where two headings read alike, the source gives them in different places. Numbered stars: 1 amine (or outer) side, 2 acyl side, 3 side chain; on linkers, the order of the positions; unused ones are H or OH. Bridge positions count the residues as written; N and C are the ends. Square brackets hold non-standard residues; d marks the D form. Peptide text beside a SMILES is read from it. * marks the point of attachment. DOTA = O=C(O)CN1CCN(CC(=O)O)CCN(CC(=O)*)CCN(CC(=O)O)CC1; X10 = NC(=O)CN1CCN(CC(=O)O)CCN(CC(=O)*)CCN(CC(=O)O)CC1; Pro(trans-4-F) = O=C(O)[C@@H]1C[C@@H](F)CN1; Phe(4-Cl) = N[C@@H](Cc1ccc(Cl)cc1)C(=O)O; Arg(Me) = CNC(=N)NCCC[C@H](N)C(=O)O; NMeR = CN[C@@H](CCCNC(=N)N)C(=O)O; NMeT = CN[C@H](C(=O)O)[C@@H](C)O; X1 = O=C(CC1CCN([*:1])CC1)[*:2]; Lys(Me) = CNCCCC[C@H](N)C(=O)O; Tle = CC(C)(C)[C@H](N)C(=O)O; 4Abz = Nc1ccc(C(=O)O)cc1; Aib = CC(C)(N)C(=O)O

The target in test [1] is T1, PSMA-expressing C4-2 cells (Homo sapiens, UniProt Q04609).
T1 construct: PSMA-expressing C4-2 cells (ATCC, Cat. No. CRL-3314) were cultured in RPMI-1640; host or cells: C4-2 cells
T1 sequence (Q04609 whole entry): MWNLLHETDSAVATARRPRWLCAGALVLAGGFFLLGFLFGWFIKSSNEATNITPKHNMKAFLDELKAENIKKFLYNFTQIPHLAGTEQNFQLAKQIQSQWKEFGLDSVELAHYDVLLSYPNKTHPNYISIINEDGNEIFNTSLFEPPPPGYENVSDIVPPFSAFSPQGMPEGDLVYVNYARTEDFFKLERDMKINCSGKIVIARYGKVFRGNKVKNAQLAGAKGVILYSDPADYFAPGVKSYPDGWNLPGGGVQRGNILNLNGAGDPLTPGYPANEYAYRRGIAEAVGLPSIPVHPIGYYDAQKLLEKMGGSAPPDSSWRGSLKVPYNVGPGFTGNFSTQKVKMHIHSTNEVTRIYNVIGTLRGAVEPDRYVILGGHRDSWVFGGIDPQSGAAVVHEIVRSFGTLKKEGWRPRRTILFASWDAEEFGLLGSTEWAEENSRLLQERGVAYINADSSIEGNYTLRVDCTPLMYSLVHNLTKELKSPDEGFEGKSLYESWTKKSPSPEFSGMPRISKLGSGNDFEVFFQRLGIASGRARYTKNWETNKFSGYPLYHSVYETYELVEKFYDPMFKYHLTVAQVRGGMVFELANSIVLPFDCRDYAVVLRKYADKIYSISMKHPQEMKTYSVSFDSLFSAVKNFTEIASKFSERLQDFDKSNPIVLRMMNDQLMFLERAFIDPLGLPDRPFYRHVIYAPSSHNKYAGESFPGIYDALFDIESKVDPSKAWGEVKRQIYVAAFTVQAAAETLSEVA
In words: FACS binding assay (competition with 50 nM PSM-0183). To be noted: read-out: pIC50 [C4-2] CAT (converted). The essentials:
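Competition format: fluorescent tracer PSM-0183 (50 nM) displaced from PSMA on C4-2 cells by a test compound titration over 1 h at 4 °C. Bound tracer was quantified as flow-cytometric AF488 median fluorescence after washing. Four-parameter logistic fits of MFI data gave IC50 and pIC50.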

For test [2], the target named is T2, Fc-fusion protein of human PSMA (hPSMA-Fc) (Homo sapiens, UniProt Q04609).
T2 construct: purchased Acro Biosystems PSA-H5264
T2 sequence (Q04609 44-750 limits assumed): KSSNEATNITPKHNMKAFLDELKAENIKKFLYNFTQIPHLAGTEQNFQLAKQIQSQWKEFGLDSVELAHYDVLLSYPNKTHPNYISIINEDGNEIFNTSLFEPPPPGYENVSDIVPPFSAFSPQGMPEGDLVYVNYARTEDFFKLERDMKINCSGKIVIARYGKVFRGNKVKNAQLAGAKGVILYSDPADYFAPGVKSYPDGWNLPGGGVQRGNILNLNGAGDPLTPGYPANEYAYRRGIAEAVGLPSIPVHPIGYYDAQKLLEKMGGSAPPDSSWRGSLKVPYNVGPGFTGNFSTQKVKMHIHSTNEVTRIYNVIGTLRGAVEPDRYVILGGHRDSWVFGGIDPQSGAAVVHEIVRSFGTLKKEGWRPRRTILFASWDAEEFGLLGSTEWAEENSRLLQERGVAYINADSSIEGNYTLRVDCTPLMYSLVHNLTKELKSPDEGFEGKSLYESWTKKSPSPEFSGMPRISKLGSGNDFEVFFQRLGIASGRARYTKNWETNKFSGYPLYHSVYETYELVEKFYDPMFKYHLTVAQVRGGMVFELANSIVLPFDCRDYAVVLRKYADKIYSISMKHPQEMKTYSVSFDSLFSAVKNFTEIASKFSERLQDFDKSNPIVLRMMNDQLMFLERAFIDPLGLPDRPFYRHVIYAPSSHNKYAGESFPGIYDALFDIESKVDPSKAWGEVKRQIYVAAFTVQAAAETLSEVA
Kind of test: Surface plasmon resonance assay (Biacore T200, single cycle kinetic). It is filed as binding. To be noted: read-out: pKD CAT (converted). The essentials:
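KD, expressed as pKD, came from 1:1 Langmuir fits of reference- and buffer-blank-subtracted SPR data. The runs were single-cycle kinetics at 25° C in HBST/0.1% DMSO over human PSMA-Fc, captured to ~1000 RU on a peptide-coated CM5 surface and regenerated with 10 mM glycine pH 1.5.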
(Surface plasmon resonance follows binding to a sensor surface in real time, without labels.)

[3] abbreviates: pIC50 category of FACS binding, C4-2 cells.
[4] abbreviates: pKD category for PSMA SPR activity assay, hPSMA-Fc, 25° C.
Where [5] appears, read: FACS binding, PSMA-expressing C4-2 cells, pIC50 category.
[6] abbreviates: PSMA SPR assay, hPSMA-Fc, 25° C., pKD category.

Take `CC(=O)N[C@H](C(=O)NC(C)(C)C(=O)N[C@@H](Cc1ccccc1)C(=O)N[C@H]1CSSC[C@@H](C(=O)N[C@H](C(=O)N[C@H](C(=O)N[C@@H](CC(=O)O)C(N)=O)[C@@H](C)O)C(C)(C)C)NC(=O)[C@H](CC(N)=O)NC(=O)[C@@H]2C[C@@H](F)CN2C(=O)[C@H](CCCNC(=N)N)NC(=O)[C@H](CCCCN)NC1=O)[C@@H](C)O` [PSM-0392, Ac-Thr-Aib-Phe-[Cys-Lys-Arg-4Tfp-Asn-Cys]-Tle-Thr-Asp-NH2] (Ac-T[Aib]FCKR[Pro(trans-4-F)]NC[Tle]TD-NH2; disulfide 4-9): in test [1] (setting [3]), the IC50 is less than 200 nM. Besides, the Kd in test [2] (setting [4]) is less than 12.6 nM.
As to `C[C@@H](O)[C@H](NC(=O)[C@@H](NC(=O)[C@@H]1CSSC[C@H](NC(=O)[C@H](Cc2ccccc2)NC(=O)C(C)(C)NC(=O)c2ccc(NC(=O)CN3CCN(CC(=O)O)CCN(CC(=O)O)CCN(CC(=O)O)CC3)cc2)C(=O)N[C@@H](CCCCN)C(=O)N[C@@H](CCCNC(=N)N)C(=O)NC(C)(C)C(=O)N[C@@H](CC(N)=O)C(=O)N1)C(C)(C)C)C(N)=O` [PSM-0316, DOTA-Pab-Aib-Phe-[Cys-Lys-Arg-Aib-Asn-Cys]-Tle-Thr-NH2] ({DOTA-4Abz}-[Aib]FCKR[Aib]NC[Tle]T-NH2; disulfide 3-8), the IC50 in test [1] (setting [5]) was less than 200 nM. Also, the Kd in test [2] (setting [6]) is less than 12.6 nM.
`CC(=O)N[C@H](C(=O)NC(C)(C)C(=O)N[C@@H](Cc1ccccc1)C(=O)N[C@H]1CSSC[C@@H](C(=O)N[C@H](C(=O)NCC(N)=O)C(C)(C)C)NC(=O)[C@H](CC(N)=O)NC(=O)C(C)(C)NC(=O)[C@H](CCCNC(=N)N)NC(=O)[C@H](CCCCN)NC1=O)[C@@H](C)O` [PSM-0477, Ac-Thr-Aib-Phe-[Cys-Lys-Arg-Aib-Asn-Cys]-Tle-Gly-NH2] (Ac-T[Aib]FCKR[Aib]NC[Tle]G-NH2; disulfide 4-9): the IC50 in test [1] (setting [3]) is less than 200 nM. For the same compound, in test [2] (setting [4]), the Kd was less than 12.6 nM.
Consider `C[C@H](NC(=O)[C@H]([C@@H](C)O)N(C)C(=O)CC1CCN(C(=O)CN2CCN(CC(=O)O)CCN(CC(=O)O)CCN(CC(=O)O)CC2)CC1)C(=O)N[C@@H](Cc1ccc(Cl)cc1)C(=O)N[C@H]1CSSC[C@@H](C(=O)N[C@H](C(=O)N[C@H](C(N)=O)[C@@H](C)O)C(C)(C)C)NC(=O)[C@H](CC(N)=O)NC(=O)C(C)(C)NC(=O)[C@H](CCCNC(=N)N)NC(=O)[C@H](CCCCN)NC1=O` [PSM-0455, DOTA-Cmp-Nmt-Ala-Pcf-[Cys-Lys-Arg-Aib-Asn-Cys]-Tle-Thr-NH2] ({DOTA}-[X1][NMeT]A[Phe(4-Cl)]CKR[Aib]NC[Tle]T-NH2; disulfide 5-10), for which, in test [1] (setting [3]), the IC50 was 200 to 1260 nM. Besides, the Kd in test [2] (setting [4]) was 126 to 501 nM.
Taken in the same sequence, the figures for `CNCCCC[C@@H]1NC(=O)[C@@H](NC(=O)[C@H](Cc2ccc(Cl)cc2)NC(=O)C(C)(C)NC(=O)[C@@H](NC(=O)CC2CCN(C(=O)CN3CCN(CC(=O)O)CCN(CC(=O)O)CCN(CC(=O)O)CC3)CC2)C(C)(C)C)CSSC[C@@H](C(=O)N[C@H](C(=O)N[C@H](C(N)=O)[C@@H](C)O)C(C)(C)C)NC(=O)[C@H](CC(N)=O)NC(=O)C(C)(C)NC(=O)[C@H](CCCNC(=N)NC)NC1=O` [PSM-0538, DOTA-Cmp-Tle-Aib-Pcf-[Cys-Lys (Mc)-Arg (Mc)-Aib-Asn-Cys]-Tle-Thr-NH2] ({DOTA}-[X1][Tle][Aib][Phe(4-Cl)]C[Lys(Me)][Arg(Me)][Aib]NC[Tle]T-NH2; disulfide 5-10) were 200 to 1260 nM and 126 to 501 nM.
Take `CNCCCC[C@@H]1NC(=O)[C@@H](NC(=O)[C@H](Cc2ccc(Cl)cc2)NC(=O)C(C)(C)NC(=O)[C@@H](NC(=O)CC2CCN(C(=O)CN3CCN(CC(=O)O)CCN(CC(N)=O)CCN(CC(=O)O)CC3)CC2)[C@@H](C)O)CSSC[C@@H](C(=O)N[C@H](C(=O)N[C@H](C(N)=O)[C@@H](C)O)C(C)(C)C)NC(=O)[C@H](CC(N)=O)NC(=O)C(C)(C)NC(=O)[C@H](CCCNC(=N)NC)NC1=O` [PSM-0601, LSC-Cmp-Thr-Aib-Pcf-[Cys-Lys(Me)-Arg(Me)-Aib-Aan-Cys]-Tle-Thr-NH] (X10-[X1]T[Aib][Phe(4-Cl)]C[Lys(Me)][Arg(Me)][Aib]NC[Tle]T-NH2; disulfide 5-10): in test [1] (FACS binding, C4-2 cells, category), the IC50 was less than 200 nM. For the same compound, the Kd in test [2] (PSMA SPR assay, category) was less than 12.6 nM.
Turning to `C[C@@H](O)[C@H](NC(=O)[C@@H](NC(=O)[C@@H]1CSSC[C@H](NC(=O)[C@H](Cc2ccc(Cl)cc2)NC(=O)C(C)(C)NC(=O)[C@@H](NC(=O)CC2CCN(C(=O)CN3CCN(CC(=O)O)CCN(CC(=O)O)CCN(CC(=O)O)CC3)CC2)[C@@H](C)O)C(=O)N[C@@H](CCCCN)C(=O)N(C)[C@@H](CCCNC(=N)N)C(=O)NC(C)(C)C(=O)N[C@@H](CC(N)=O)C(=O)N1)C(C)(C)C)C(N)=O` [PSM-0340, DOTA-Cmp-Thr-Aib-Pcf-[Cys-Lys-Nmr-Aib-Asn-Cys]-Tle-Thr-NH2] ({DOTA}-[X1]T[Aib][Phe(4-Cl)]CK[NMeR][Aib]NC[Tle]T-NH2; disulfide 5-10), the IC50 in test [1] (setting [5]) was 200 to 1260 nM. Further, the Kd in test [2] (setting [6]) was less than 12.6 nM.
